Results published in patent US20130324576A1, “THERAPEUTIC COMPOUNDS” (Takeda Pharmaceutical Company Limited, priority 2012, published 2013).

Biological target: T1, human PKR1 receptors (Homo sapiens, UniProt Q8TCW9)
T1 construct: expressed in transfected cells; host or cells: RBL2H3 cells (rat basophilic leukaemia line) expressing human PKR1
Test: PKR1 antagonist assay: block of PK1-mediated intracellular calcium release (FLIPR Tetra, Calcium 5 dye)
Assay type: cell-based
Conditions: RBL2H3 cells expressing human PKR1; 10 min pre-incubation, stimulation with PK1 at EC80; calcium fluorescence
Summary of the method: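 RBL2H3 cells expressing human PKR1, loaded 1 h at 37 °C with Calcium 5 dye plus 1 mM probenecid in HBSS/25 mM HEPES/0.1% BSA, pH 7.4. Compounds (0.32 nM–10 µM final) preincubated 10 min, then PK1 added at EC80; fluorescence read at 525 nm (excitation 485 nm).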

T1 sequence (Q8TCW9 whole entry): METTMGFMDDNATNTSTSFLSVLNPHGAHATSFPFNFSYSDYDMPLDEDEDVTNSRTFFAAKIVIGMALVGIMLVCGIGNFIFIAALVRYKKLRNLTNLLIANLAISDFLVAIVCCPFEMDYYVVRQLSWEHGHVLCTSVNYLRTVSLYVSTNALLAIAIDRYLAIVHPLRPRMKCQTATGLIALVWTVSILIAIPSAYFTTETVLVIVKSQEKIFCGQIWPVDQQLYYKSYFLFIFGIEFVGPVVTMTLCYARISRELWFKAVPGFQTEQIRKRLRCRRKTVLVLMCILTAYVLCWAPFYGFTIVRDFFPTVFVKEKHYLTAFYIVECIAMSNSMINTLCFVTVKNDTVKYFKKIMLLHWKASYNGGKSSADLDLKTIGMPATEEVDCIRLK

IC50 [nM]	SMILES
2700	Cc1nn(C)c(C)c1S(=O)(=O)N1CCC(Nc2ccc(Cl)c(Cl)c2)CC1 [Example 52, N-(3,4-Dichlorophenyl)-1-((1,3,5-trimethyl-1H-pyrazol-4-yl)sulfonyl)piperidin-4-amine]
5100	COc1c(F)cc(OC2CCN(S(=O)(=O)c3c(C)nn(C)c3C)CC2)cc1F [Example 44, 4-(3,5-Difluoro-4-methoxyphenoxy)-1-(trimethyl-1H-pyrazole-4-sulfonyl)piperidine]
2200	Cc1nn(C)c(C)c1S(=O)(=O)N1CCC(Oc2cccc(Cl)c2)CC1 [Example 6, 4-(3-Chlorophenoxy)-1-[(1,3,5-trimethyl-1H-pyrazol-4-yl)sulfonyl]piperidine]
